# Experimental data taken from patent US6677355B1, “Hydroxamic acid compounds useful as matrix metalloproteinase inhibitors” (Warner-Lambert Company, priority 1999, dated 2004).
# What was measured:
# [1] = biological target: T1, MMP-14CD (membrane-type MMP-1 catalytic domain) (Homo sapiens, UniProt P50281); assay: MMP-14CD inhibition, thiopeptolide substrate hydrolysis; type: biochemical; conditions: average where multiple samples assayed
# T1 construct: MMP-14CD (membrane-type MMP-1 catalytic domain)
# Experimental: (§1) The compounds were evaluated in order to determine their respective IC50 values, i.e., the micromolar concentration of compound required to achieve a 50% inhibition of the hydrolytic activity of the respective enzymes.
# (§2) Experiments were carried out with the full-length (“FL”) and/or catalytic domains (“CD”) of the proteinases. […] IC50 values were determined using a thiopeptolide substrate, Ac-Pro-Leu-Gly-thioester-Leu-Leu-Gly-OEt (Ye Q.-Z., Johnson L. L., Hupe D. J., and Baragi V., “Purification and Characterization of the Human Stromelysin Catalytic Domain Expressed in Escherichia coli,” Biochemistry, 1992;31:11231-11235; Ye Q.-Z., Johnson L. L., Yu A. E., and Hupe D., “Reconstructed 19 kDa Catalytic Domain of Gelatinase A IAAP,” Biochemistry, 1995;34:4702-4708.)
# (§3) The tested MMPs are available to those skilled in the art. For example, MMP-1 can be obtained from Washington University School of Medicine, St. Louis, Mo. MMP-7 can be obtained in accordance with the known procedure set forth by Ye Q. Z., Johnson L. L., and Baragi V., “Gene Syntheses and Expression in E. coli for PUMP, a Human Matrix Metalloproteinase,” Biochem. and Biophys. Res. Comm., 1992;186:143-149. MMP-13 can be obtained in accordance with the known procedure set forth by Freije J. M. P. et al., “Molecular Cloning and Expression of Collagenase-3, a Novel Human Matrix Metalloproteinase Produced by Breast Carcinomas,” J. Bio. Chem., 1994;269:16766-16773. MMP-13CD can also be expressed from a synthetic gene and purified from Escherichia coli cell culture according to a previously described method (Ye Q.-Z., Johnson L. L., and Baragi V., “Gene Synthesis and Expression in E. coli for PUMP, a Human Matrix Metalloproteinase,” Biochemical and Biophysical Research Communications, 1992;186:143-149). Hydrolysis of the thiopeptolide substrate Ac-Pro-Leu-Gly-thioester-Leu-Leu-Gly-OEt (Bachem) was used as the primary screen to determine IC50 values for MMP inhibitors. A 100 μL reaction contains 1 mM 5,5′-dithiobis(2-nitrobenzoic acid) (DTNB), 100 μM substrate, 0.1% BRIJ® 35, PROTEIN GRADE®, Detergent, 10% solution, Sigma, St. Louis, Mo. [polyoxyethyleneglycol dodecyl ether; polyoxyethylene (23) lauryl ether], enzyme, and inhibitor in the appropriate reaction buffer. Activated full-length enzymes are assayed at 5 nM, Stromelysin Catalytic Domain (SCD) at 10 nM, and Gelatinase A Catalytic Domain (GaCD) at 1 nM. Inhibitors are screened from 100 μM to 1 nM. Full-length enzymes (e.g., MMP-1 and MMP-7) are assayed in 50 mM 4-(2-[…])-piperazine-1-ethane sulfonic acid (HEPES), 10 mM CaCl2, pH 7.0; SCD in 50 mM 2-morpholinoethane sulfonic acid monohydrate (MES), 10 mM CaCl2, pH 6.0; and GaCD in 50 mM 3-morpholtriopropane sulfonic acid (MOPS), 10 mM CaCl2, 10 μM ZnCl2, pH 7.0. The change in absorbance at 405 nanometers is monitored on a ThermoMax microplate reader at room temperature continuously for 20 minutes.
# (§4) The number in parenthesis indicates the number of samples assayed.
# [2] = biological target: T2, MMP-7FL (matrilysin full-length enzyme) (Homo sapiens, UniProt P09237); assay: MMP-7FL inhibition, thiopeptolide substrate hydrolysis; type: biochemical; conditions: average where multiple samples assayed
# T2 construct: made in house; host or cells: E. coli
# T2 sequence (P09237 95-267): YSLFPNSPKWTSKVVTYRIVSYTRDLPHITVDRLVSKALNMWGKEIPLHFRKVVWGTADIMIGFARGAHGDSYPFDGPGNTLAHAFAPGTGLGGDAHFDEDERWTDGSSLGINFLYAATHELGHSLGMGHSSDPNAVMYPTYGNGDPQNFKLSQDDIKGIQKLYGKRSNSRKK
# Experimental: as §1, §2, §3, §4
# [3] = biological target: T3, MMP-13CD (collagenase-3 catalytic domain) (Homo sapiens, UniProt P45452); assay: MMP-13CD inhibition, thiopeptolide substrate hydrolysis; type: biochemical; conditions: average where multiple samples assayed
# T3 construct: MMP-13CD (collagenase-3 catalytic domain); made in house; host or cells: Escherichia coli
# Experimental: as §1, §2, §3, §4
# [4] = biological target: T4, MMP-1FL (collagenase-1 full-length enzyme) (Homo sapiens, UniProt P03956); assay: MMP-1FL inhibition, thiopeptolide substrate hydrolysis; type: biochemical; conditions: average where multiple samples assayed
# T4 construct: purchased Washington University School of Medicine, St. Louis, Mo
# T4 sequence (P03956 100-469): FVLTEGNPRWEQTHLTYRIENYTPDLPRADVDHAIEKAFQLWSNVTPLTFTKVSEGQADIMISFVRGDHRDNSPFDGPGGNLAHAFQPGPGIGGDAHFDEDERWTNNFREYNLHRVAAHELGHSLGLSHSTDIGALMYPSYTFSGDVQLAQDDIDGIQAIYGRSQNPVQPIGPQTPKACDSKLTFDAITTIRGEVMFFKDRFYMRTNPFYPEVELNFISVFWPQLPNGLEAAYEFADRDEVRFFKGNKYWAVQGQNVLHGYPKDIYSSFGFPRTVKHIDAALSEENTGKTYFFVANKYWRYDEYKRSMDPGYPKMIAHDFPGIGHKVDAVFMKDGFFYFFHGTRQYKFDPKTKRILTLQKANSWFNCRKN
# Experimental: as §1, §2, §3, §4
# [5] = biological target: T5, MMP-2FL (gelatinase A full-length enzyme) (Homo sapiens, UniProt P08253); assay: MMP-2FL inhibition, thiopeptolide substrate hydrolysis; type: biochemical; conditions: average where multiple samples assayed
# T5 sequence (P08253 110-660): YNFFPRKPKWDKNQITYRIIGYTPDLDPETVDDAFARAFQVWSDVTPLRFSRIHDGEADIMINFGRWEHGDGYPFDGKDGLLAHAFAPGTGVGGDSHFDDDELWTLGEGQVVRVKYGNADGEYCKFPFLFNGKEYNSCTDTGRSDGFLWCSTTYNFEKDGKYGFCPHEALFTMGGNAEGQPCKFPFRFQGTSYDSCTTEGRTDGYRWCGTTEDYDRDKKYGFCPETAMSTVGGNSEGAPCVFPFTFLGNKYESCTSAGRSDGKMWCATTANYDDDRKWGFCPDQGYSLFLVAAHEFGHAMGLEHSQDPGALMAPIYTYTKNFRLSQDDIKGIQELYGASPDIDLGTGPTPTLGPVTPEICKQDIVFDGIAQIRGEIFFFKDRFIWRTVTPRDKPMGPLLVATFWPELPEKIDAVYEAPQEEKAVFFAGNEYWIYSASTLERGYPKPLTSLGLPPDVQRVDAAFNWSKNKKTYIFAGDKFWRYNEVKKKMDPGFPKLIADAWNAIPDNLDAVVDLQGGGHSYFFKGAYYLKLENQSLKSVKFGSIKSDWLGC
# Experimental: as §1, §2, §3, §4
# [6] = biological target: MMP-2CD (gelatinase A catalytic domain) (Homo sapiens, UniProt P08253); assay: MMP-2CD inhibition, thiopeptolide substrate hydrolysis; type: biochemical; conditions: average where multiple samples assayed
# MMP-2CD (gelatinase A catalytic domain), sequence (P08253 with tags, fused parts or gaps DEL220-393): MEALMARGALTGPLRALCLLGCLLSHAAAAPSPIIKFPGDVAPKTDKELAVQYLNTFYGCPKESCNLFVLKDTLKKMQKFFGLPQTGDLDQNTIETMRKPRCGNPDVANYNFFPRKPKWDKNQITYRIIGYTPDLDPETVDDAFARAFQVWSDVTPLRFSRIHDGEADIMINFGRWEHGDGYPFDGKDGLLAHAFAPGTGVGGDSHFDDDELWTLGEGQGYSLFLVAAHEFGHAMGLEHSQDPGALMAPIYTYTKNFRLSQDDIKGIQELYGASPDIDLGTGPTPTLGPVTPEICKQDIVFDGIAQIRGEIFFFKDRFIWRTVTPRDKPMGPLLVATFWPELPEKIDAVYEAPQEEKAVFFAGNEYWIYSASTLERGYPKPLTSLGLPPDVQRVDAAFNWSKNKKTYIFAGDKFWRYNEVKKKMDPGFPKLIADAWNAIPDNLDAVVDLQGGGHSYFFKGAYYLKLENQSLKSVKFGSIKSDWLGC
# Experimental: as §1, §2, §3, §4
# [7] = biological target: T6, MMP-3CD (stromelysin-1 catalytic domain) (Homo sapiens, UniProt P08254); assay: MMP-3CD inhibition, thiopeptolide substrate hydrolysis; type: biochemical; conditions: average where multiple samples assayed
# T6 construct: MMP-3CD (stromelysin-1 catalytic domain); made in house; host or cells: Escherichia coli
# T6 sequence (P08254 100-272 limits assumed): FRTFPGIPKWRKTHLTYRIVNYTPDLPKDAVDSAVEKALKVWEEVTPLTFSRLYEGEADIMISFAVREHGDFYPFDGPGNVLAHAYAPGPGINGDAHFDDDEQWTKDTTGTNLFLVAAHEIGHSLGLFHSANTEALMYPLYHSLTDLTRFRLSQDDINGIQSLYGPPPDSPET
# Experimental: as §1, §2, §3, §4
# [8] = biological target: MMP-9FL (gelatinase B full-length enzyme) (Homo sapiens, UniProt P14780); assay: MMP-9FL inhibition, thiopeptolide substrate hydrolysis; type: biochemical; conditions: average where multiple samples assayed
# MMP-9FL (gelatinase B full-length enzyme), sequence (P14780 107-707 limits assumed, species assumed): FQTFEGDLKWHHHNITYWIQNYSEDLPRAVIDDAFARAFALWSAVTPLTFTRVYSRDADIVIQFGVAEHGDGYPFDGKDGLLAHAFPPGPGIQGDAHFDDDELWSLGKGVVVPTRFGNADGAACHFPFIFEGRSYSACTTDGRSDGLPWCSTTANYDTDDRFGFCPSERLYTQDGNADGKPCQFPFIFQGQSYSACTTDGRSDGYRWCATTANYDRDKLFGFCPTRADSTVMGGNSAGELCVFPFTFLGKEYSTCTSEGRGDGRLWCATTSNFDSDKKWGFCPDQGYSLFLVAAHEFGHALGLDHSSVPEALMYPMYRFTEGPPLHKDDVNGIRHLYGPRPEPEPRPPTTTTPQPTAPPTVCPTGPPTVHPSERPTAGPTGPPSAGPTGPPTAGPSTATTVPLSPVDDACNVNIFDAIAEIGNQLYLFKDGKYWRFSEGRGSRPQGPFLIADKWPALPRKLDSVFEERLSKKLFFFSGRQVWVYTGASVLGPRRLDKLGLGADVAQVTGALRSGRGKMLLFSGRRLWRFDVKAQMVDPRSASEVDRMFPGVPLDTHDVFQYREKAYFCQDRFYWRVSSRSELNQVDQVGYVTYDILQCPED
# Experimental: as §1, §2, §3, §4
melting point,IC50 [1],IC50 [2],IC50 [3],IC50 [4],IC50 [5],IC50 [6],IC50 [7],IC50 [8],Structure (SMILES)
239 to 243 °C,0.0265 µM,4.25 µM,0.23 µM,1.75 µM,0.023 µM,0.0027 µM,0.00925 µM,3.7 µM,"O=C(O)C1(NS(=O)(=O)c2ccc3c(c2)oc2ccccc23)CCCCC1 [Example 27, 1-(Dibenzofuran-3-sulfonylamino)-cyclohexanecarboxylic acid]"
184 to 186 °C,0.0039 µM,4.05 µM,0.049 µM,0.295 µM,0.0045 µM,0.0017 µM,0.0155 µM,0.135 µM,"O=C(NO)C1(NS(=O)(=O)c2ccc3c(c2)oc2ccccc23)CCCCC1 [Example 28, 1-(Dibenzofuran-3-sulfonylamino)-cyclohexanecarboxylic acid hydroxyamide]"
220 to 224 °C,0.0225 µM,34 µM,0.45 µM,8.25 µM,0.0198 µM,0.00265 µM,0.00835 µM,11.5 µM,"CC(C)(NS(=O)(=O)c1ccc2c(c1)oc1ccccc12)C(=O)O [Example 29, 2-(Dibenzofuran-3-sulfonylamino)-2-methyl-propionic acid]"
168 to 169 °C,0.0135 µM,100 µM,0.105 µM,0.905 µM,0.00475 µM,0.0043 µM,0.0835 µM,0.86 µM,"CC(C)(NS(=O)(=O)c1ccc2c(c1)oc1ccccc12)C(=O)NO [Example 30, 2-(Dibenzofuran-3-sulfonylamino)-N-hydroxy-2-methyl-propionamide]"
160 to 162 °C,0.00575 µM,3 µM,0.048 µM,0.38 µM,0.00525 µM,0.0023 µM,0.0147 µM,0.25 µM,"O=C(NO)C1(NS(=O)(=O)c2ccc3c(c2)oc2ccccc23)CCOCC1 [Example 31, 4-(Dibenzofuran-3-sulfonylamino)-tetrahydro-pyran-4-carboxylic acid hydroxyamide]"
–,0.34 µM,0.35 µM,0.165 µM,5.75 µM,0.205 µM,0.0827 µM,0.035 µM,13 µM,"O=C(NO)C1(NS(=O)(=O)c2ccc3oc4cc(Br)ccc4c3c2)CCCC1 [Example 32, 1-(7-Bromo-dibenzofuran-2-sulfonylamino)-cyclopentane carboxylic acid hydroxamide]"
–,0.3 µM,0.92 µM,0.11 µM,3.05 µM,0.125 µM,0.081 µM,0.043 µM,15 µM,"CC(C)(NS(=O)(=O)c1ccc2oc3cc(Cl)ccc3c2c1)C(=O)NO [Example 33, 2-(7-Chloro-dibenzofuran-2 sulfonylamino)-N-hydroxy-2-methyl-propionamide]"
